According to ChEMBL document CHEMBL3875185, “Structure-anticonvulsant activity studies in the group of (E)-N-cinnamoyl aminoalkanols derivatives monosubstituted in phenyl ring with 4-Cl, 4-CH3 or 2-CH3” (Bioorg Med Chem, 2017):
Activity calls are given as the source filed them. No cut-off for these calls is given here.

Legend:
Mus musculus [1] = assay: Neurotoxicity in mouse assessed as induction of motor impairment at 100 mg/kg, ip measured at 4 hrs post dose by rotarod method; type: toxicity, organism-based; details: in vivo
Mus musculus [2] = assay: Neurotoxicity in mouse assessed as induction of motor impairment at 300 mg/kg, ip measured at 0.5 hrs post dose by rotarod method; type: toxicity, organism-based; details: in vivo
Mus musculus [3] = assay: Anticonvulsant activity in pentylenetetrazole induced seizure mouse model assessed as no observable episode of clonic convulsion of at least 5 secs at 300 mg/kg, ip measured at 0.5 hrs post dose; type: functional, organism-based
Mus musculus [4] = assay: Anticonvulsant activity in maximal electroshock induced seizure mouse model assessed as suppression in hindlimb tonic extension at 300 mg/kg, ip measured at 0.5 hrs post dose; type: functional, organism-based
Mus musculus [5] = assay: Neurotoxicity in mouse assessed as induction of motor impairment at 30 mg/kg, ip measured at 4 hrs post dose by rotarod method; type: toxicity, organism-based; details: in vivo
Mus musculus [6] = assay: Anticonvulsant activity in maximal electroshock induced seizure mouse model assessed as suppression in hindlimb tonic extension at 300 mg/kg, ip measured at 4 hrs post dose; type: functional, organism-based
Mus musculus [7] = assay: Anticonvulsant activity in maximal electroshock induced seizure mouse model assessed as suppression in hindlimb tonic extension at 100 mg/kg, ip measured at 0.5 hrs post dose; type: functional, organism-based
Mus musculus [8] = assay: Anticonvulsant activity in pentylenetetrazole induced seizure mouse model assessed as no observable episode of clonic convulsion of at least 5 secs at 100 mg/kg, ip measured at 0.5 hrs post dose; type: functional, organism-based
Mus musculus [9] = assay: Neurotoxicity in mouse assessed as induction of motor impairment at 30 mg/kg, ip measured at 0.5 hrs post dose by rotarod method; type: toxicity, organism-based; details: in vivo
Rattus norvegicus [10] = assay: Neurotoxicity in Sprague-Dawley rat assessed as behavioral change at 30 mg/kg, po measured at […] post dose; type: toxicity, organism-based; details: in vivo
Mus musculus [11] = assay: Neurotoxicity in mouse assessed as induction of motor impairment at 100 mg/kg, ip measured at 0.5 hrs post dose by rotarod method; type: toxicity, organism-based; details: in vivo
Rattus norvegicus [12] = assay: Neurotoxicity in Sprague-Dawley rat assessed as behavioral change at 30 mg/kg, po measured at 4 hrs post dose; type: toxicity, organism-based; details: in vivo
Rattus norvegicus [13] = assay: Neurotoxicity in Sprague-Dawley rat assessed as behavioral change at 30 mg/kg, po measured at 2 hrs post dose; type: toxicity, organism-based; details: in vivo
Rattus norvegicus [14] = assay: Neurotoxicity in Sprague-Dawley rat assessed as behavioral change at 30 mg/kg, po measured at 1 hr post dose; type: toxicity, organism-based; details: in vivo
Rattus norvegicus [15] = assay: Neurotoxicity in Sprague-Dawley rat assessed as behavioral change at 30 mg/kg, po measured at 0.5 hrs post dose; type: toxicity, organism-based; details: in vivo
Mus musculus [16] = assay: Neurotoxicity in mouse assessed as induction of motor impairment at 300 mg/kg, ip measured at 4 hrs post dose by rotarod method; type: toxicity, organism-based; details: in vivo
Mus musculus [17] = assay: Anticonvulsant activity in 6-Hz induced seizure mouse model assessed as restoration of normal activity within 10 secs from stimulation at 100 mg/kg, ip at 32 mA measured at […] post dose; type: functional, organism-based
Mus musculus [18] = assay: Anticonvulsant activity in 6-Hz induced seizure mouse model assessed as restoration of normal activity within 10 secs from stimulation at 100 mg/kg, ip at 32 mA measured at 0.5 hrs post dose; type: functional, organism-based
Mus musculus [19] = assay: Anticonvulsant activity in ip dosed maximal electroshock induced seizure mouse model assessed as suppression in hindlimb tonic extension; type: functional
[20] = Neurotoxicity in ip dosed mouse; type: toxicity, organism-based; details: in vivo
Mus musculus [21] = assay: Anticonvulsant activity in ip dosed maximal electroshock induced seizure mouse model assessed as suppression in hindlimb tonic extension by measuring time to peak effect; type: functional
[22] = Protection index, ratio of TD50 for neurotoxicity in ip dosed mouse to ED50 for ip dosed maximal electroshock induced seizure mouse model; type: toxicity, organism-based; details: in vivo, read-out: Ratio TD50/ED50
Mus musculus [23] = assay: Neurotoxicity in ip dosed mouse assessed as induction of motor impairment by measuring time to peak effect by rotarod method; type: toxicity, organism-based; details: in vivo
Rattus norvegicus [24] = assay: Neurotoxicity in Sprague-Dawley rat assessed as behavioral change at 30 mg/kg, ip measured at 4 hrs post dose; type: toxicity, organism-based; details: in vivo
Rattus norvegicus [25] = assay: Neurotoxicity in Sprague-Dawley rat assessed as behavioral change at 30 mg/kg, ip measured at 0.5 hrs post dose; type: toxicity, organism-based; details: in vivo
Rattus norvegicus [26] = assay: Neurotoxicity in Sprague-Dawley rat assessed as behavioral change at 30 mg/kg, ip measured at 2 hrs post dose; type: toxicity, organism-based; details: in vivo
Rattus norvegicus [27] = assay: Neurotoxicity in Sprague-Dawley rat assessed as behavioral change at 30 mg/kg, ip measured at 1 hr post dose; type: toxicity, organism-based; details: in vivo
Rattus norvegicus [28] = assay: Neurotoxicity in Sprague-Dawley rat assessed as behavioral change at 30 mg/kg, ip measured at […] post dose; type: toxicity, organism-based; details: in vivo
Mus musculus [29] = assay: Anticonvulsant activity in maximal electroshock induced seizure mouse model assessed as suppression in hindlimb tonic extension at 30 mg/kg, ip measured at 4 hrs post dose; type: functional, organism-based
Mus musculus [30] = assay: Anticonvulsant activity in maximal electroshock induced seizure mouse model assessed as suppression in hindlimb tonic extension at 100 mg/kg, ip measured at 4 hrs post dose; type: functional, organism-based

| Compound | Activity (Mus musculus [1]) | Activity (Mus musculus [2]) | Activity (Mus musculus [3]) | Activity (Mus musculus [4]) | Activity (Mus musculus [5]) | Activity (Mus musculus [7]) | Activity (Mus musculus [9]) | Activity (Rattus norvegicus [10]) | Activity (Mus musculus [11]) | Activity (Rattus norvegicus [12]) | Activity (Rattus norvegicus [13]) | Activity (Rattus norvegicus [14]) | Activity (Rattus norvegicus [15]) | Activity (Mus musculus [16]) | other results |
| --- | --- | --- | --- | --- | --- | --- | --- | --- | --- | --- | --- | --- | --- | --- | --- |
| Cc1ccccc1/C=C/C(=O)NCC(C)O (stereo not drawn) | Non-Toxic | Toxic | Active | Active | Non-Toxic | Active | Non-Toxic |  |  |  |  |  |  |  | Activity (Mus musculus [6]): Active; Activity (Mus musculus [8]): Active |
| Cc1ccc(/C=C/C(=O)NC(C)CO)cc1 (stereo not drawn) | Non-Toxic | Toxic | Active | Active | Non-Toxic | Active | Non-Toxic | Non-Toxic | Non-Toxic | Non-Toxic | Non-Toxic | Non-Toxic | Non-Toxic | Non-Toxic |  |
| Cc1ccccc1/C=C/C(=O)N[C@H](C)CO | Non-Toxic | Toxic | Active | Active | Non-Toxic |  | Non-Toxic | Non-Toxic | Non-Toxic | Non-Toxic | Non-Toxic | Non-Toxic | Non-Toxic | Non-Toxic | Activity (Mus musculus [17]): Active; Activity (Mus musculus [18]): Active |
| CC[C@@H](CO)NC(=O)/C=C/c1ccc(C)cc1 | Non-Toxic | Toxic | Active | Active | Non-Toxic |  | Non-Toxic |  | Non-Toxic |  |  |  |  | Non-Toxic |  |
| CC[C@@H](CO)NC(=O)/C=C/c1ccc(Cl)cc1 |  |  |  |  |  | Active |  |  | Toxic |  |  |  |  |  | ED50 (Mus musculus [19]): 43.3 mg/kg; TD50 [20]: 56.4 mg/kg; Time (Mus musculus [21]): 0.25 h; selectivity ratio [22]: 1.3; Time (Mus musculus [23]): 0.25 h |
| CCC(O)CNC(=O)/C=C/c1ccc(C)cc1 (stereo not drawn) | Non-Toxic |  |  |  |  |  |  |  | Non-Toxic |  |  |  |  |  | Activity (Rattus norvegicus [24]): Non-Toxic; Activity (Rattus norvegicus [25]): Non-Toxic; Activity (Rattus norvegicus [26]): Non-Toxic; Activity (Rattus norvegicus [27]): Non-Toxic; Activity (Rattus norvegicus [28]): Non-Toxic |
| Cc1ccccc1/C=C/C(=O)N[C@H]1CC[C@H](O)CC1 |  |  |  |  | Non-Toxic |  | Non-Toxic | Non-Toxic |  | Non-Toxic | Non-Toxic | Non-Toxic | Non-Toxic | Non-Toxic | Activity (Mus musculus [6]): Active; Activity (Mus musculus [29]): Active; Activity (Mus musculus [30]): Active |
| Cc1ccc(/C=C/C(=O)NCC(C)O)cc1 (stereo not drawn) | Non-Toxic | Toxic | Active | Active | Non-Toxic |  | Non-Toxic |  | Non-Toxic |  |  |  |  | Non-Toxic |  |
| Cc1ccccc1/C=C/C(=O)NC(C)CO (stereo not drawn) | Non-Toxic | Toxic | Active | Active | Non-Toxic | Active | Non-Toxic | Non-Toxic |  | Non-Toxic | Non-Toxic | Non-Toxic | Non-Toxic | Non-Toxic |  |
| CC[C@@H](CO)NC(=O)/C=C/c1ccccc1C | Non-Toxic | Toxic | Active | Active | Non-Toxic | Active | Non-Toxic | Non-Toxic | Non-Toxic | Non-Toxic | Non-Toxic | Non-Toxic | Non-Toxic | Non-Toxic |  |
| CC(CO)NC(=O)/C=C/c1ccc(Cl)cc1 (stereo not drawn) | Non-Toxic | Toxic | Active | Active | Non-Toxic | Active | Non-Toxic | Non-Toxic |  | Non-Toxic | Non-Toxic | Non-Toxic | Non-Toxic |  | Activity (Mus musculus [6]): Active; Activity (Mus musculus [8]): Active |
| CC(C)(CO)NC(=O)/C=C/c1ccc(Cl)cc1 | Non-Toxic |  |  | Active | Non-Toxic |  | Non-Toxic | Non-Toxic | Non-Toxic | Non-Toxic | Non-Toxic | Non-Toxic | Non-Toxic | Non-Toxic | Activity (Rattus norvegicus [24]): Non-Toxic; Activity (Mus musculus [6]): Active; Activity (Rattus norvegicus [25]): Non-Toxic; Activity (Rattus norvegicus [26]): Non-Toxic; Activity (Rattus norvegicus [27]): Non-Toxic; Activity (Rattus norvegicus [28]): Non-Toxic |
| Cc1ccc(/C=C/C(=O)NC2CCCCC2O)cc1 (racemic) | Non-Toxic |  |  |  |  |  |  |  | Non-Toxic |  |  |  |  |  |  |
| Cc1ccccc1/C=C/C(=O)NC1CCCCC1O (racemic) | Non-Toxic | Non-Toxic |  | Active | Non-Toxic |  | Non-Toxic |  | Non-Toxic |  |  |  |  | Non-Toxic |  |
| CC[C@H](CO)NC(=O)/C=C/c1ccc(Cl)cc1 |  |  |  |  |  | Active |  |  | Toxic |  |  |  |  |  | ED50 (Mus musculus [19]): 27.3 mg/kg; TD50 [20]: 105 mg/kg; Time (Mus musculus [21]): 0.25 h; selectivity ratio [22]: 3.85; Time (Mus musculus [23]): 0.25 h |
